{
  "source": "patent US20250243486A1",
  "about": "“COMPOSITIONS AND METHODS FOR INHIBITING STAG1 EXPRESSION AND USES THEREOF” (PRESIDENT AND FELLOWS OF HARVARD COLLEGE, priority 2022, published 2025)",
  "test_system": "STAG1 Exon 5",
  "test": "STAG1 Exon 5 inclusion in control or STAG2 KO cells following treatment with H3B-8800",
  "format": "cell-based",
  "data": [
    {"substance": "H3B-8800", "values": [
      {"measurement": "STAG1 Exon 5 skipping", "setting": "STAG2 KO versus control cells, following treatment of H3B-8800", "value": "increased STAG1 Exon 5 skipping"},
      {"measurement": "sensitivity of cohesin-mutant AML cells to splicing inhibitor", "setting": "cohesin mutations, AML cells", "value": "highly sensitive"}
    ]}
  ]
}
